Earlier results on 1 molecule are cited in US11197880B2, “Use of eriocitrin compositions for increasing GLP-1 levels” (INGREDIENTS BY NATURE, LLC, priority 2019, dated 2021).

The series relates to mice (C57BL/6J).
[1] abbreviates: mice (C57BL/6J), eriocitrin 140 mg/kg/day.
The mark [2] stands for this setting: mice supplemented with eriocitrin, previous study.

SMILES strings stand for the structures.

In the case of `C[C@@H]1O[C@@H](OC[C@H]2O[C@@H](Oc3cc(O)c4c(c3)O[C@H](c3ccc(O)c(O)c3)CC4=O)[C@H](O)[C@@H](O)[C@@H]2O)[C@H](O)[C@H](O)[C@H]1O` [Eriocitrin, eriodictyol 7-O-B-rutinoside], under setting [1], the “inflammatory markers (IL-6 and MCP-1)” value is recorded as “decreased inflammatory markers”; the total antioxidant capacity result is “increased total antioxidant capacity”. Moreover, under setting [2], the blood glucose result is recorded as “reduced blood glucose” and the insulin sensitivity result is listed as “improved insulin sensitivity”.
